The molecules below were run against recombinant human LRRK2 (catalytic domain only [amino acids 970-2527], GST-tagged) (Homo sapiens (Human), UniProt Q5S007) (assay: LRRK2 Enzymatic Assay). Settings: LRRKtide substrate, [32P]-ATP.
Type: biochemical
How it was run: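 Radiometric P81 filter-binding read-out of [32P]-ATP transfer to LRRKtide (20 μM) by 30 nM GST-LRRK2 970-2527, 2 h at room temperature after 20 min compound preincubation (10 μM–0.5 nM, 1% DMSO). IC50 derived from % remaining activity versus DMSO.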

Chain of recombinant human LRRK2 (catalytic domain only [amino acids 970-2527], GST-tagged) (Q5S007 970-2527): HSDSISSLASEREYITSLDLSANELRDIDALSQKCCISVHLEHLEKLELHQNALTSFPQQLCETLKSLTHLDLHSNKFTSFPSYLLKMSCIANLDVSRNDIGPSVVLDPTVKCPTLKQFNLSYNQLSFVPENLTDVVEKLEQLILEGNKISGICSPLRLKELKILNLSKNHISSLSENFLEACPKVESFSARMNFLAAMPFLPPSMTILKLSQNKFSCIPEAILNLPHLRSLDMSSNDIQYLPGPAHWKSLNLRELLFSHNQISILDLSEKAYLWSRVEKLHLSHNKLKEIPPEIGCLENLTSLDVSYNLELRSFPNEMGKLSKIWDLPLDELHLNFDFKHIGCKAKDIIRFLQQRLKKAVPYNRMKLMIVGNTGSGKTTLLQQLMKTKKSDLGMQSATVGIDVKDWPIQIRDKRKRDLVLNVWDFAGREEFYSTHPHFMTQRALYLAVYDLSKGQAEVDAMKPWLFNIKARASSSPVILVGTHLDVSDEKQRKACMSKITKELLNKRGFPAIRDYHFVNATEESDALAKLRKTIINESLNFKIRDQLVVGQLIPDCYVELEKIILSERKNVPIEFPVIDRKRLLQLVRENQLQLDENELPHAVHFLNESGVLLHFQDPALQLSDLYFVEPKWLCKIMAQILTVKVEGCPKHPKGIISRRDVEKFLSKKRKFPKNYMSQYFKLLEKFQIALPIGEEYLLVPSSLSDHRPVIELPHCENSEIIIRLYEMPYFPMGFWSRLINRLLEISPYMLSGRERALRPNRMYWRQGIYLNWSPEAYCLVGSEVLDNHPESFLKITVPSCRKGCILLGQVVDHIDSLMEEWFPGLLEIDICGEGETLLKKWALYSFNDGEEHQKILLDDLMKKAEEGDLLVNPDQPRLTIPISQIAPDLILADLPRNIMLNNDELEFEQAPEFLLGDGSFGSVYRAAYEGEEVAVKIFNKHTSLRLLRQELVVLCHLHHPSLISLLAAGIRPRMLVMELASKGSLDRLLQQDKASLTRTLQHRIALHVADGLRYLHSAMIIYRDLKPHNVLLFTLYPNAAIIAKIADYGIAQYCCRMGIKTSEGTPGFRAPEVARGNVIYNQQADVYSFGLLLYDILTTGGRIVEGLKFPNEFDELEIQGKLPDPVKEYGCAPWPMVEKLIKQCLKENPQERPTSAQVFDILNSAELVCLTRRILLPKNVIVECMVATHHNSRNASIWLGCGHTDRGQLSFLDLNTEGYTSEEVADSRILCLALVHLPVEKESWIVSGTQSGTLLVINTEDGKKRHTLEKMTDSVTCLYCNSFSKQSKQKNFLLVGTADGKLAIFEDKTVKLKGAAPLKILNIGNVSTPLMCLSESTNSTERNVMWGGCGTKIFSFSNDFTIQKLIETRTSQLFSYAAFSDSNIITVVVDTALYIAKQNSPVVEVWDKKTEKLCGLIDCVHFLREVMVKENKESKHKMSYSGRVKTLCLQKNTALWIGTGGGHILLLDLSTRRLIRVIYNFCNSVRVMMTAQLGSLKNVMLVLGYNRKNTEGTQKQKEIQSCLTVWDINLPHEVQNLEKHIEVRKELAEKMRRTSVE

IC50	SMILES
> 400 nM	CC(=O)N[C@H]1CC[C@H](COc2ccnc(Nc3cn(C4CC(C#N)C4)nc3C)n2)CC1 (stereo partly drawn) [Example 75, N-((1R,4R)-4-(((2-((1-(3-cyanocyclobutyl)-3-methyl-1H-pyrazol-4-yl)amino)pyrimidin-4-yl)oxy)methyl)cyclo-hexyl)acetamide]
< 50 nM	CC(=O)N[C@H]1CC[C@H](COc2nc(Nc3ccc(N4C[C@@H](C)O[C@@H](C)C4)cc3)ncc2F)CC1 [Example 83]
50 to 200 nM	COCCn1ncc(Nc2ncc(F)c(OC[C@H]3CC[C@H](O)CC3)n2)c1Cl [Example 241, (1R,4R)-4-(((2-((5-chloro-1-(2-methoxyethyl)-1H-pyrazol-4-yl)amino)-5-fluoropyrimidin-4-yl)oxy)methyl)cyclohexan-1-ol]
200 to 400 nM	Cc1nn(C2CC(C#N)C2)cc1Nc1ncc(Cl)c(OCC2CCN(C)CC2)n1 (centres unmarked) [Example 59, 3-(4-((5-chloro-4-((1-methylpiperidin-4-yl)methoxy)pyrimidin-2-yl)amino)-3-methyl-1H-pyrazol-1-yl)cyclobutane-1-carbonitrile]
< 50 nM	FC(F)(F)CN[C@H]1CC[C@H](COc2nc(Nc3ccc(N4CCOCC4)cc3)ncc2Cl)CC1 [Example 108, 5-chloro-N-(4-morpholino-phenyl)-4-(((1R,4R)-4-((2,2,2-trifluoroethyl)amino)cyclohexyl)methoxy) pyrimidin-2-amine]
50 to 200 nM	COc1cnc(Nc2ccc(N3CCOCC3)cc2)nc1OC[C@H]1CC[C@H](NCC(F)(F)F)CC1 [Example 105, 5-methoxy-N-(4-morpholino-phenyl)-4-(((1R,4R)-4-((2,2,2-trifluoroethyl)amino)cyclohexyl)methoxy) pyrimidin-2-amine]
< 50 nM	O[C@H]1CC[C@H](COc2nc(Nc3cnn(C4CCOCC4)c3C3CC3)ncc2F)CC1 [Example 236, (1R,4R)-4-(((2-((5-cyclopropyl-1-(tetrahydro-2H-pyran-4-yl)-1H-pyrazol-4-yl)amino)-5-fluoropyrimidin-4-yl)oxy)methyl)cyclohexan-1-ol]
< 50 nM	COc1nn(C(C)C)cc1Nc1ncc(F)c(OC[C@H]2CC[C@H](NC(=O)C(F)(F)F)CC2)n1 [Example 213, 2,2,2-trifluoro-N-((1R,4R)-4-(((5-fluoro-2-((1-isopropyl-3-methoxy-1H-pyrazol-4-yl)amino)pyrimidin-4-yl)oxy)methyl)cyclohexyl) acetamide]
> 400 nM	Cc1nn(C2CC(C#N)C2)cc1Nc1ncc(Cl)c(OCC2(F)CN(C)C2)n1 (centres unmarked) [Example 69, 3-(4-((5-chloro-4-((3-fluoro-1-methylazetidin-3-yl)methoxy)pyrimidin-2-yl)amino)-3-methyl-1H-pyrazol-1-yl)cyclobutane-1-carbonitrile]
< 50 nM	COc1cnc(Nc2ccc(N3CCOCC3)cc2)nc1OC[C@H]1CC[C@H](CN)CC1 [Example 13, 4-(((1R,4R)-4-(aminomethyl)cyclohexyl)methoxy)-5-methoxy-N-(4-morpholinophenyl) pyrimidin-2-amine]
> 400 nM	CC1(C(=O)N[C@H]2CC[C@H](COc3ccnc(Nc4ccc(N5CCOCC5)cc4)n3)CC2)CC1 [Example 71, 1-methyl-N-((1R,4R)-4-(((2-((4-morpholinophenyl)amino)pyrimidin-4-yl)oxy)methyl)cyclo-hexyl)cyclopropane-1-carboxamide]
< 50 nM	C[C@@H]1CN(c2ccc(Nc3ncc(F)c(OC[C@@H]4CCC[C@@H](O)C4)n3)cc2)C[C@H](C)O1 [Example 249, (1R,3R)-3-(((2-((4-((2S,6R)-2,6-dimethylmorpholino)phenyl)amino)-5-fluoropyrimidin-4-yl)oxy)methyl)cyclohexan-1-ol]
> 400 nM	Cc1nn(C(C)(C)C#N)cc1Nc1nc(C)c(F)c(OC[C@H]2CC[C@H](O)CC2)n1 [Example 267, 2-(4-((5-fluoro-4-(((1R,4R)-4-hydroxycyclohexyl)methoxy)-6-methylpyrimidin-2-yl)amino)-3-methyl-1H-pyrazol-1-yl)-2-methylpropanenitrile]
< 50 nM	CC(=O)N[C@H]1CC[C@H](COc2nc(Nc3cnn(CC(F)(F)F)c3)ncc2F)CC1 [Example 188, N-((1R,4R)-4-(((5-fluoro-2-((1-(2,2,2-trifluoroethyl)-1H-pyrazol-4-yl)amino)pyrimidin-4-yl)oxy)methyl)cyclo-hexyl)acetamide]
50 to 200 nM	Cc1nn(C2CC(C#N)C2)cc1Nc1ncc(Cl)c(OCC2CC(F)(F)C2)n1 (centres unmarked) [Example 160, 3-(4-((5-chloro-4-((3,3-difluorocyclobutyl)methoxy)pyrimidin-2-yl)amino)-3-methyl-1H-pyrazol-1-yl)cyclobutane-1-carbonitrile]
> 400 nM	Cc1nn(C2CC(C#N)C2)cc1Nc1ncc(Cl)c(OCC2CCN(C)CC2F)n1 (centres unmarked) [Example 63, 3-(4-((5-chloro-4-((3-fluoro-1-methylpiperidin-4-yl)methoxy)pyrimidin-2-yl)amino)-3-methyl-1H-pyrazol-1-yl)cyclobutane-1-carbonitrile]

IC50	SMILES
< 50 nM	N[C@H]1CC[C@H](COc2nc(Nc3ccc(N4CCOCC4)cc3)ncc2Cl)CC1 [Example 9, 4-(((1R,4R)-4-aminocyclohexyl)methoxy)-5-chloro-N-(4-morpholinophenyl) pyrimidin-2-amine]
< 50 nM	Cc1nn(C(C)(C)C#N)cc1Nc1ncc(Cl)c(OCC2CC3(CNC3)C2)n1 [Example 28, 2-(4-((4-((2-azaspiro[3.3]heptan-6-yl)methoxy)-5-chloropyrimidin-2-yl)amino)-3-methyl-1H-pyrazol-1-yl)-2-methylpropanenitrile]
200 to 400 nM	O[C@H]1CC[C@H](COc2nc(Nc3cnn(C4CCOCC4)c3)ncc2F)CC1 [Example 228, (1R,4R)-4-(((5-fluoro-2-((1-(tetrahydro-2H-pyran-4-yl)-1H-pyrazol-4-yl)amino)pyrimidin-4-yl)oxy)methyl)cyclohexan-1-ol]
< 50 nM	Cc1nn(C(C)(C)C#N)cc1Nc1ncc(F)c(OCC2CCC(C)(O)CC2)n1 (centres unmarked) [Example 253, 2-(4-((5-fluoro-4-((4-hydroxy-4-methylcyclohexyl)methoxy)pyrimidin-2-yl)amino)-3-methyl-1H-pyrazol-1-yl)-2-methylpropanenitrile]
> 400 nM	Fc1cnc(Nc2ccc(N3CCOCC3)cc2)nc1OCC1CCC(OC(F)(F)F)CC1 (single isomer, unassigned) [Example 281, 5-fluoro-N-(4-morpholinophenyl)-4-((4-(trifluoromethoxy)cyclohexyl)methoxy)pyrimidin-2-amine]
50 to 200 nM	CC(=O)N1CCC(COc2nc(Nc3ccc(N4CCOCC4)cc3)ncc2F)C(F)C1 (single isomer, unassigned) [Example 172, 1-(3-fluoro-4-(((5-fluoro-2-((4-morpholinophenyl)amino)pyrimidin-4-yl)oxy)methyl)piper-idin-1-yl)ethan-1-one]
> 400 nM	C[C@@H]1CN(c2ccc(Nc3ncc(F)c(OCC4CCS(=O)(=O)CC4)n3)cc2)C[C@H](C)O1 [Example 288, 4-(((2-((4-((2R,6S)-2,6-dimethylmorpholino)phenyl)amino)-5-fluoropyrimidin-4-yl)oxy)methyl)tetrahydro-2H-thiopyran 1,1-dioxide]
> 400 nM	CC(=O)N[C@H]1CC[C@@H](COc2ccnc(Nc3ccc(N4CCOCC4)cc3)n2)C1 [Example 89, N-((1S,3R)-3-(((2-((4-morpholinophenyl)amino)pyrimidin-4-yl)oxy)methyl)cyclo-pentyl)acetamide]
< 50 nM	CN[C@H]1CC[C@H](COc2nc(Nc3ccc(N4CCOCC4)cc3)ncc2F)CC1 [Example 42, 5-fluoro-4-(((1R,4R)-4-(methylamino)cyclo-hexyl)methoxy)-N-(4-morpholinophenyl) pyrimidin-2-amine]
50 to 200 nM	CC(C)(O)[C@H]1CC[C@H](COc2nc(Nc3ccc(N4CCOCC4)cc3)ncc2F)CC1 [Example 144, 2-((1R,4R)-4-(((5-fluoro-2-((4-morpholinophenyl)amino)pyrimidin-4-yl)oxy)methyl)cyclohexyl)propan-2-ol]
< 50 nM	C[C@@H]1CN(c2ccc(Nc3ncc(F)c(OCC4CCNCC4(F)F)n3)cc2)C[C@H](C)O1 (stereo partly drawn) [Example 30, 4-((3,3-difluoropiperidin-4-yl)methoxy)-N-(4-((2S,6R)-2,6-dimethylmorpholino)phenyl)-5-fluoropyrimidin-2-amine]
50 to 200 nM	Cc1nn(C(C)(C)C#N)cc1Nc1ncc(F)c(OCC2CCNCC2F)n1 (single isomer, unassigned) [Example 170, 2-(4-((5-fluoro-4-((3-fluoropiperidin-4-yl)methoxy)pyrimidin-2-yl)amino)-3-methyl-1H-pyrazol-1-yl)-2-methylpropanenitrile]
200 to 400 nM	CC(=O)N1CCC(COc2nc(Nc3cn(C(C)(C)C#N)nc3C)ncc2F)C(F)C1 (single isomer, unassigned) [Example 176, 2-(4-((4-((1-acetyl-3-fluoropiperidin-4-yl)methoxy)-5-fluoropyrimidin-2-yl)amino)-3-methyl-1H-pyrazol-1-yl)-2-methylpropanenitrile]
50 to 200 nM	CCO[C@H]1CC[C@@H](COc2nc(Nc3ccc(N4CCOCC4)cc3)ncc2F)CC1 [Example 275, 4-(((1S,4S)-4-ethoxycyclohexyl)methoxy)-5-fluoro-N-(4-morpholinophenyl)pyrimidin-2-amine]
< 50 nM	C[C@@H]1CN(c2ccc(Nc3ncc(F)c(OCC4(F)CCNCC4)n3)cc2)C[C@H](C)O1 [Example 23, N-(4-((2R,6S)-2,6-dimethylmorpholino)phenyl)-5-fluoro-4-((4-fluoropiperidin-4-yl)methoxy) pyrimidin-2-amine]
< 50 nM	Cc1nn(C(C)(C)C#N)cc1Nc1ncc(F)c(OCC2CCC(C#N)CC2)n1 (racemic) [Example 274, 4-(((2-((1-(2-cyanopropan-2-yl)-3-methyl-1H-pyrazol-4-yl)amino)-5-fluoropyrimidin-4-yl)oxy)methyl)cyclohexane-1-carbonitrile]
